In paper PMC6407576, “Synthesis and evaluation of anticancer, antiphospholipases, antiproteases, and antimetabolic syndrome activities of some 3H-quinazolin-4-one derivatives” (Journal of Enzyme Inhibition and Medicinal Chemistry, 2019):
pIC50: −log10 of the molar value.

Key:
[1] = test system: HT-29 cells; assay: MTT cell viability assay; assay type: cell-based, Human; settings: for inhibition of cell viability (in words): HT-29, 30 μg/ml, MTT; for viability at 30 µg/mL: Homo sapiens, HT-29, 24 h, read-out: cell viability
Experimental: (§1) Human CRC cell lines, HT-29 and SW620 cells were grown in RPMI (Invitrogen) containing 10% heat-inactivated foetal bovine serum, 100 µg/ml streptomycin, 100 units/ml penicillin and 2 mmol/l L-glutamine.
(§2) Cell viability was determined using the 3-(4, 5-dimethylthiazolyl-2)–2, 5-diphenyltetrazolium bromide) MTT assay according to Mosmann[40]. 5-Fluorouracil (5-FU) was used as positive control. Briefly, after culturing cells in 96 well plates for 24 h, they were treated with different compounds (30 μg/ml) for 24 h. Freshly prepared MTT (5 mM) solutions were added to the cells and were further incubated for 2 h at 37 °C in 5% CO2. One hundred microliters of dimethyl sulphoxide (DMSO) was added in each well to dissolve the formazan crystal, formed in the reaction during incubation by careful pipetting. The absorbance of the product was measured at 540 nm using a microplate reader. The experiments were performed in triplicate for each condition. The graph illustrates the mean and standard deviation (SD) values of three independent experiments.

[2] = test system: SW620 cells; assay: MTT cell viability assay; assay type: cell-based, Human; settings: for inhibition of cell viability (in words): SW620, 30 μg/ml, MTT; for viability at 30 µg/mL: Homo sapiens, SW-620, 24 h, read-out: cell viability
Experimental: as §1, §2

[3] = target: Apis mellifera bee venom (AmPLA2) (Apis mellifera, UniProt P00630); assay: biochemical
[4] = target: Naja mossambica mossambica sPLA2 (NmPLA2); assay: In vitro antiphospholipase activity; assay type: biochemical; settings: 20 min preincubation, lecithin substrate, pH 7.6
[5] = target: T1, human group X (hG-X) sPLA2 (Homo sapiens, UniProt O15496); assay: In vitro antiphospholipase activity; assay type: biochemical; settings: 20 min preincubation, lecithin substrate, pH 7.6; read-out: mean IC50 against hG-X (converted)
T1 sequence (O15496 43-165): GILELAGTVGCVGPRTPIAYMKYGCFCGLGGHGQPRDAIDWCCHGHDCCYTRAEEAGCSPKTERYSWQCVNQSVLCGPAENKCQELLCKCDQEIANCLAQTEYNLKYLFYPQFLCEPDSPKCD

[6] = target: T2, human group V (hG-V) sPLA2 (Homo sapiens, UniProt P39877); assay: In vitro antiphospholipase activity; assay type: biochemical; settings: 20 min preincubation, lecithin substrate, pH 7.6; read-out: mean IC50 against hG-V (converted)
T2 sequence (P39877 21-138): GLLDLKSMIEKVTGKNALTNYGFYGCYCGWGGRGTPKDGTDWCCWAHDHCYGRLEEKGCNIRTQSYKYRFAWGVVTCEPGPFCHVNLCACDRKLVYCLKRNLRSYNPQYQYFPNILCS

[7] = target: T3, trypsin (Bos taurus, UniProt P00760); assay: In vitro antiprotease activity; assay type: biochemical; settings: 15 min preincubation; read-out: mean IC50 against Trypsin (converted)
T3 construct: gene PRSS1
T3 sequence (P00760 24-246): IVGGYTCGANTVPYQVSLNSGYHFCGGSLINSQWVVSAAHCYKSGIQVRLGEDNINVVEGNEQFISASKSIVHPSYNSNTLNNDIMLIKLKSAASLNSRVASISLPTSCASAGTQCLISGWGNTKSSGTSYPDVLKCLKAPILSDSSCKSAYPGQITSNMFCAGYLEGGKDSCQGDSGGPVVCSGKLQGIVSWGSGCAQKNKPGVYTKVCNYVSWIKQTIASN
Experimental: (§3) The inhibitory effects of 21 3H-quinazolin-4-one derivatives on several available therapeutically important proteases such as cathepsin-B, collagenase, elastase, thrombin, and trypsin were investigated. […] The protease inhibitory activity was expressed as inhibition percentage, which was determined by comparison with a control experiment. The results were expressed as IC50 values that were determined from the standard curve. A protease inhibitor cocktail (Sigma) was used as the positive control.

[8] = target: thrombin (Homo sapiens, UniProt P00734); assay: In vitro antiprotease activity; assay type: biochemical; settings: 15 min preincubation; read-out: mean IC50 against Thrombin (converted)
Experimental: as §3

[9] = target: collagenase; assay: In vitro antiprotease activity; assay type: biochemical; settings: 15 min preincubation
Experimental: as §3

[10] = target: elastase; assay: In vitro antiprotease activity; assay type: biochemical; settings: 15 min preincubation
Experimental: as §3

[11] = target: cathepsin-B (Homo sapiens, UniProt P07858); assay: In vitro antiprotease activity; assay type: biochemical; settings: 15 min preincubation; read-out: mean IC50 against Cathepsin-B (converted)
Experimental: as §3

[12] = target: xanthine oxidase (Homo sapiens, UniProt P47989); assay: In vitro inhibition of xanthine oxidase; assay type: biochemical
Experimental: The xanthine oxidase inhibitory activities of the examined chemical compounds were determined by following the formation of uric acid from xanthine according to the reported method by Bondet and co-workers[46]. […] The results were expressed as IC50 determined from the curve.

[13] = target: T4, human group IIA (hG-IIA) sPLA2 (Homo sapiens, UniProt P14555); assay: In vitro antiphospholipase activity; assay type: biochemical
T4 sequence (P14555 21-144): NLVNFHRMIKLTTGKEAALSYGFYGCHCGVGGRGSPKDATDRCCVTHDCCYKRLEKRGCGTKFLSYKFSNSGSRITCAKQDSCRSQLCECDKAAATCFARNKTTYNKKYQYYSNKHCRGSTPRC

Sequence of Apis mellifera bee venom (AmPLA2) (P00630 34-167 limits assumed): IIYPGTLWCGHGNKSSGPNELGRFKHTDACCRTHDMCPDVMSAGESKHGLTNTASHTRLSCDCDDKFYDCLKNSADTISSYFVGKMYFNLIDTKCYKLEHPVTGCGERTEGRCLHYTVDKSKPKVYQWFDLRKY
Sequence of xanthine oxidase (P47989 whole entry, species assumed): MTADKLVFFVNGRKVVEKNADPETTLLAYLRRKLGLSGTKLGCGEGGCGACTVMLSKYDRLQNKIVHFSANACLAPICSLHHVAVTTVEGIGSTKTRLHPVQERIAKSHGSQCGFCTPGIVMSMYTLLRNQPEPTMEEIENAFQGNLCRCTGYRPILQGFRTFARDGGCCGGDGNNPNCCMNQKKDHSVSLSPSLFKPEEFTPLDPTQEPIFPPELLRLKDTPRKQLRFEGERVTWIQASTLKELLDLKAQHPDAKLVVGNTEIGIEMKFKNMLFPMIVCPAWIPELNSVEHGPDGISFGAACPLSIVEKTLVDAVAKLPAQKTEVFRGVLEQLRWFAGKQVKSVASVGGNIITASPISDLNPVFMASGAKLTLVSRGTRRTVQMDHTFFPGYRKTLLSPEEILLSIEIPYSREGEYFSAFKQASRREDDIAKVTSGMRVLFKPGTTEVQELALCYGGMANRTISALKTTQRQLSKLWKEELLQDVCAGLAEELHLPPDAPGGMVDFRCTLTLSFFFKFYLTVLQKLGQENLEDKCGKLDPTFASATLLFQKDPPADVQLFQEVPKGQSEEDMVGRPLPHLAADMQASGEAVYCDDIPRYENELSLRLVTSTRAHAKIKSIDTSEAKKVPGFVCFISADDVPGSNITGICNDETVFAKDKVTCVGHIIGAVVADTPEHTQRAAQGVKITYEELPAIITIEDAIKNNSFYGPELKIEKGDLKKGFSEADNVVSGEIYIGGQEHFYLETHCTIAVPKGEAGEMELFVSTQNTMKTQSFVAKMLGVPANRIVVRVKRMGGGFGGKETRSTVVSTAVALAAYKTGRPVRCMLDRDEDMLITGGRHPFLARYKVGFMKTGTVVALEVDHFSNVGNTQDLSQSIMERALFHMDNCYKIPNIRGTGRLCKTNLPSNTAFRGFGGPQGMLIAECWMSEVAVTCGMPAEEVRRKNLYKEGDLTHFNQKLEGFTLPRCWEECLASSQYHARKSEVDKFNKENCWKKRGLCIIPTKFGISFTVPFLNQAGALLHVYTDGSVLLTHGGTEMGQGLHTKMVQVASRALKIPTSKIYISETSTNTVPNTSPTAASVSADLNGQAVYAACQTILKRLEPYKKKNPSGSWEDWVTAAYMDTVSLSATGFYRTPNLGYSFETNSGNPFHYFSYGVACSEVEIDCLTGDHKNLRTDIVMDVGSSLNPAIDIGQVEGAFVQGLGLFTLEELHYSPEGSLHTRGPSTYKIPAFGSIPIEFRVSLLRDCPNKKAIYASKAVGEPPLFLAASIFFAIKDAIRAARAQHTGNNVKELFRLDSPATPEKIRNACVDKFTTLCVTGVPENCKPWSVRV

SMILES | inhibition of cell viability (in words) [1] | inhibition of cell viability (in words) [2] | pIC50 [3] | mean IC50 against NmPLA2 [4] [µg/mL] | IC50 [5] [µM] | IC50 [6] [µM] | IC50 [7] [µM] | IC50 [8] [µM] | mean IC50 against Collagenase [9] [µg/mL] | mean IC50 against Elastase [10] [µg/mL] | IC50 [11] [µM] | pIC50 [12] | pIC50 [13] | melting point [°C] | viability at 30 µg/mL [2] [%] | viability at 30 µg/mL [1] [%]
Cc1nc2ccccc2c(=O)n1/N=C/c1ccc2ccccc2c1 [Compound 8a, (E)-2-Methyl-3-[(naphthalen-2-ylmethylene)-amino]-3H-quinazolin-4-one] | potently capable of inhibiting cell viability | potently capable of inhibiting cell viability | 4.00 | 36.75 ± 2.48 | 90.9 | 121 | 110 | 109 | 31.00 ± 1.41 | 32.50 ± 2.12 | 116 | 3.86 | 3.84 |  |  | 
Cc1nc2ccc(Br)cc2c(=O)n1/N=C/c1ccc(-c2ccccc2)cc1 [Compound 8j, (E)-3-[(Biphenyl-4-ylmethylene)-amino]-6-bromo-2-methyl-3H-quinazolin-4-one] | potently capable of inhibiting cell viability | potently capable of inhibiting cell viability | 4.34 | 16.40 ± 0.85 | 22.6 | 14.9 | 22.7 | 29.9 | 14.00 ± 1.41 | 9.00 ± 0.41 | 3.35 | 4.31 | 4.69 | 208 to 210 |  | 
COc1cc(-n2c(C)nc3ccc(F)cc3c2=O)cc(OC)c1OC [Compound 5b, 6 -Fluoro-2-methyl-3–(3,4,5-trimethoxy-phenyl)-3H-quinazolin-4-one] |  |  | 4.83 | 4.15 ± 0.50 | 24.7 | 36.3 | 3.19 | 2.61 | 18.00 ± 1.41 | 0.70 ± 0.01 | 31.9 | 4.80 | 4.22 | 193 to 195 | 46.6 | 
Cc1ccc2nc(SCc3ccc(Cl)cc3)n(-c3ccccc3)c(=O)c2c1 [Compound 15b, 2-(4-Chloro-benzylsulfanyl)-6-methyl-3-phenyl-3H-quinazolin-4-one] | potently capable of inhibiting cell viability | potently capable of inhibiting cell viability | 4.46 | 14.85 ± 0.50 | 34.4 | 46.8 | 1.27 | 2.55 | 26.50 ± 2.12 | 0.65 ± 0.02 | 34.4 | 4.30 | 4.18 | 164 to 165 |  | 
Cc1cccc(C)c1NC(=O)CSc1nc2ccccc2c(=O)n1-c1ccccc1 [Compound 15c, N-(2,6-Dimethyl-phenyl)-2-(4-oxo-3-phenyl-3,4-dihydro-quinazolin-2-ylsulfanyl)-acetamide] |  |  | 4.28 | 28.50 ± 2.12 | 102 | 56.6 | 37.3 | 42.1 | 18.00 ± 1.41 | 18.50 ± 0.71 | 26.5 | 3.83 | 4.02 | 218 to 220 |  | 47.5
O=c1c2ccccc2nc(SCc2ccc(Cl)cc2)n1-c1ccccc1 [Compound 15a] | potently capable of inhibiting cell viability | potently capable of inhibiting cell viability | 4.77 | 5.40 ± 0.57 | 17.8 | 27.7 | 31.7 | 35.6 | 28.00 ± 1.41 | 11.50 ± 2.12 | 48.8 | 4.50 | 4.64 |  |  | 
COc1cccc(/C=N/n2c(C)nc3ccc(Br)cc3c2=O)c1[N+](=O)[O-] [Compound 8f, (E)-6-Bromo-3-[(3-methoxy-2-nitro-benzylidene)-amino]-2-methyl-3H-quinazolin-4-one] | potently capable of inhibiting cell viability | potently capable of inhibiting cell viability | 5.00 | 6.00 ± 0.71 | 43.1 | 37.7 | 74.3 | 59.9 | 15.50 ± 2.12 | 30.50 ± 2.12 | 45.5 | 5.14 | 4.35 | 234 to 235 |  | 
O=c1[nH]cc(F)c(=O)[nH]1 [Compound 5-FU, 5-Fluorouracil, reference compound] |  |  |  |  |  |  |  |  |  |  |  |  |  |  | 42.7 | 65.9
